Laboratory results as given in EPA's ToxValDB 9.5.

Tested on: Rattus norvegicus
Conditions: oral
[1] = subchronic, gavage, M, Sprague-Dawley
[2] = subchronic, gavage, M, Sprague-Dawley, Clinical Observation: Salivation + Body Weight Changes: Gain increase + Food Consumption: increase + Hematology: Plt increase, Eosinophil% …
[3] = subchronic, gavage, M, Sprague-Dawley, Clinical Observation: Excessive salivation Decreased spontaneous locomotors Decreased respiration rate Incomplete eyelid opening + …
[4] = short-term, duration: 28 days, gavage, M, Sprague-Dawley, Clinical Observation: Yellow-orange urine SalivationSpontaneous locomotion decrease, Respiratory rate decrease, Soft stool + Body Weight …

With O=S(=O)(O)c1cc(Cl)cc(N=Nc2ccc3c(O)cccc3c2O)c1[O-].[Na+] the NOEL (short-term, duration: 28 days, gavage, M/F, Crl:CD(SD), Deaths + Clinical Observation: Loose stool Locomotor activity increase + Body Weight Changes: decrease + Water Consumption: increase + …) was less than 40 mg/kg-day.
COc1cccc(OC)c1C(=O)P(=O)(CC(C)CC(C)(C)C)C(=O)c1c(OC)cccc1OC (centres undefined) gave an NOEL (short-term, duration: 28 days, gavage, M/F, Blood Chemistry: CHE decrease + Absolute Organ Weight: Liver increase + Histopathology: Skin-Proliferation, epidermis, horny layer Skin-…) of 5 mg/kg-day.
CC1(C)C(C=CC(=O)OC(C(F)(F)F)C(F)(F)F)C1C(=O)OC(C#N)c1cccc(Oc2ccccc2)c1 (centres undefined) was tested, and the NOEL (short-term, duration: 28 days, gavage, M/F, Deaths + Clinical Observation: Salivation + Urinalysis: Specific gravity decrease, pH decrease + Blood Chemistry: GPT increase, BUN …) was less than 5 mg/kg-day.
COc1c(N2CCNC(C)C2)c(F)cc2c(=O)c(C(=O)O)cn(C3CC3)c12.O (centres undefined) was tested, and the NOAEL (chronic, duration: 182 days, gavage, M/F, Wistar, Clinical Observation: Loss of increaseper incisor + Body Weight Changes: decrease + Urinalysis: Ca increase + Hematology: SEG decrease, …) was 30 mg/kg-day.
CCn1cc(C(=O)O)c(=O)c2cc(F)c(N3CCNCC3)nc21.CCn1cc(C(=O)O)c(=O)c2cc(F)c(N3CCNCC3)nc21.CCn1cc(C(=O)O)c(=O)c2cc(F)c(N3CCNCC3)nc21.O.O gave an NOEL (short-term, duration: 28 days, gavage, M/F, Sprague-Dawley, Clinical Observation: Loose stool + Body Weight Changes: Body weight gain decrease + Food Consumption: decrease + Urinalysis: White crystal…) of 120 mg/kg-day.
In the case of CCOCCc1ccc(OCC(OC)OC)c(C)c1C, the NOEL (short-term, duration: 28 days, gavage, M/F, Clinical Observation: Salivation Locomotor activity decrease + Blood Chemistry: GOT increase, GPT increase, gamma-GTP increase, T-CHO …) is reported as less than 40 mg/kg-day.
With O=[N+]([O-])c1cc(Cl)c(/N=N/c2ccc3c(c2)c2ccccc2n3CCO)c(Cl)c1 the NOEL (short-term, duration: 28 days, gavage, M/F, Body Weight Changes: Body weight gain decrease + Food Consumption: decrease + Water Consumption: increase + Urinalysis: Urine volume …) was 140 mg/kg-day.
CCCC[B-](c1ccccc1)(c1ccccc1)c1ccccc1.CCN(CC)c1ccc(C(=C/C=C/C(=C2C=CC(=[N+](CC)CC)C=C2)c2ccc(N(CC)CC)cc2)c2ccc(N(CC)CC)cc2)cc1 was tested, and the NOEL (short-term, duration: 28 days, gavage, M/F, Blood Chemistry: GPT increase, Ch E decrease + Organ Weight: Kidney decrease, Adrenal decrease + Necropsy: Adrenal- Reddish brown + …) was 30 mg/kg-day.
In the case of CC(O)C(=O)[O-].[Na+] (racemic) [Sodium DL-lactate], the NOEL (subchronic, duration: 42 days, gavage, M, CD(SD), Thyroid Hormone: T4 increase, TSH increase + Histopathology: Stomach-Hyperplasia, squamous, limiting ridge) is reported as 100 mg/kg-day.
O=S(=O)(c1cc(Br)c(OCC(Br)CBr)c(Br)c1)c1cc(Br)c(OCC(Br)CBr)c(Br)c1 (centres undefined) [1,1'-Sulfonylbis[3,5-dibromo-4-(2,3-dibromopropoxy)benzene]] was tested, and the NOAEL [1] was 1000 mg/kg-day and the NOEL [1] was 1000 mg/kg-day.
With CC(C)(O)C(Cl)(Cl)Cl [1,1,1-Trichloro-2-methyl-2-propanol] the NOEL (subchronic, gavage, M, Sprague-Dawley, Clinical Observation: Staggering gait + Functional Observational Battery: Grip strength decrease, Locomotor activity decrease + Food …) was less than 10 mg/kg-day.
CN(C)CCN(C)CCN(C)C [1,1,4,7,7-Pentamethyldiethylenetriamine] was tested, and the NOEL (subchronic, gavage, M, Sprague-Dawley, Body Weight Changes: decrease200 + Blood Chemistry: Alb decrease, IP increase + Relative Organ Weight: Liver increase + Histopathology: "…) was 40 mg/kg-day.
For c1ccc2n[nH]nc2c1 [1,2,3-Benzotriazole], the NOEL (subchronic, gavage, M, Sprague-Dawley, Blood Chemistry: AST increase, ALT increase, TP decrease, A/G increase, PL increase, K increase) was less than 30 mg/kg-day.
For Clc1ccccc1NNc1ccccc1Cl [1,2-Bis(2-chlorophenyl)hydrazine], the NOEL (subchronic, gavage, M, Sprague-Dawley, Body Weight Changes: decrease(trend) + Hematology: Hgb decrease, RET increase(trend) + Blood Chemistry: T-CHO increase(trend) + Relative …) was 40 mg/kg-day.
Work on CC(C)(C)c1cc(C(C)(C)C)cc(C(C)(C)C)c1 [1,3,5-Tri-tert-butylbenzene] yielded an LOAEL [2] of 50 mg/kg-day, an LOEL [2] of 50 mg/kg-day and an NOAEL [2] of 10 mg/kg-day. It also gave an NOEL [2] of 10 mg/kg-day.
For Nc1ccc(Oc2cccc(Oc3ccc(N)cc3)c2)cc1 [1,3-Phenylenedi(4-aminophenyl ether)], the NOEL (short-term, duration: 28 days, gavage, M/F, Deaths + Clinical Observation: Piloerection Abnormal distention Lethargy Loss of hair + Body Weight Changes: Weight gain decrease + Food …) was 10 mg/kg-day.
Work on SCC1CSC(CS)CS1 (centres undefined) [1,4-Dithiane-2,5-dimethanethiol] yielded an NOEL (short-term, duration: 28 days, gavage, M/F, Clinical Observation: Salivation Ataxic gait Locomotor activity decrease + Body Weight Changes: Body weight gain decrease + Food Consumption…) of 20 mg/kg-day.
With CC(C)(C)Oc1ccc(Cl)cc1 [1-Chloro-4-tert-butoxybenzene] the NOAEL [3] was 100 mg/kg-day and the NOEL [3] was 20 mg/kg-day.
Work on CCCCCCCCCCCCCCCCCCCCCCN(C)C [1-Docosanamine, N,N-dimethyl-] yielded an NOEL (subchronic, gavage, M, Sprague-Dawley, Body Weight Changes: decrease + Blood Chemistry: AST increase, ALT increase, Alb increase, A/G increase, ALP decrease + Necropsy: Mesentric …) of 0.5 mg/kg-day.
C=COCC(CC)CCCC (centres undefined) [1-Ethenoxy-2-ethylhexane] was tested, and the NOEL (short-term, duration: 28 days, gavage, M/F, Sprague-Dawley, Urinalysis: Occult blood increase + Blood Chemistry: ALP increase, Cho increase, PL increase + Relative Organ Weight: Liver increase, …) was 8 mg/kg-day.
In the case of COc1ccccc1[N+](=O)[O-] [1-Methoxy-2-nitrobenzene], the NOAEL [4] is reported as 80 mg/kg-day, the NOEL [4] is reported as 80 mg/kg-day and the NOEL (subchronic, duration: 13 weeks, diet, M/F, Fischer 344, Deaths + Body Weight Changes: decrease + Food Consumption: decrease + Hematology: Ret increase, Hct decrease, Hgb decrease, RBC decrease, …) is reported as less than 19.2 mg/kg-day.
C=CCCCCCC [1-Octene] was tested, and the NOEL (subchronic, duration: 90 days, gavage, M/F, Urinalysis: Volume increase + Blood Chemistry: Cl decrease, CRE increase + Absolute Organ Weight: Kidney increase + Relative Organ Weight: …) was 50 mg/kg-day.
